The source of these data is paper PMC6061858 (2018).

Test [1] concerns metY 55 nt (metY SAM-V riboswitch) (RNA, riboswitch) AGGCGCAUUUGAACUGUAUUGUACGCCUUGCAUAAAGCAAAAGUACUAAAAAAGG
In words: ITC. As to conditions: 100 mM KCl, 10 mM MgCl2, 40 mM HEPES pH 7.2, 298 K.

Test [2] has as its system bhmT 52 nt (SAM-52) (RNA, riboswitch) GGGCAGUUGAACCAUAUUGUGCGCCCUGCAUUUGCUUAAGCACUAAAAAGGA
In words: ITC. As to conditions: 100 mM KCl, 10 mM MgCl2, 40 mM HEPES pH 7.2, 298 K.

Test [3] has as its system metY A50Pur (RNA, riboswitch, purine at 50 (replaces A50)) AGGCGCAUUUGAACUGUAUUGUACGCCUUGCAUAAAGCAAAAGUACUAAAAAAGG
In words: ITC. As to conditions: 100 mM KCl, 10 mM MgCl2; 40 mM HEPES pH 7.2, 298 K.

In test [4] the test system is bhmT A50Pur (RNA, riboswitch, purine at A50 (metY numbering; position 47 of strand)) GGGCAGUUGAACCAUAUUGUGCGCCCUGCAUUUGCUUAAGCACUAAAAAGGA
Briefly: ITC. As to conditions: 100 mM KCl, 10 mM MgCl2; 40 mM HEPES pH 7.2, 298 K.

Test [5] deals with bhmT A50Ino (RNA, riboswitch, inosine at A50 (metY numbering; position 47 of strand)) GGGCAGUUGAACCAUAUUGUGCGCCCUGCAUUUGCUUAAGCACUAAAAAGGA
In words: ITC. The following applies: 100 mM KCl, 10 mM MgCl2; 40 mM HEPES pH 7.2, 298 K.

The subject of test [6] is metY A50Inosine (RNA, riboswitch, inosine at 50 (replaces A50)) AGGCGCAUUUGAACUGUAUUGUACGCCUUGCAUAAAGCAAAAGUACUAAAAAAGG
Briefly: ITC. As to conditions: 100 mM KCl, 10 mM MgCl2; 40 mM HEPES pH 7.2, 298 K; 200 µM SAM titrated into 15 µM RNA.

The test system of test [7] is metY U47Isocytidine (RNA, riboswitch, isocytidine at 47 (replaces U47)) AGGCGCAUUUGAACUGUAUUGUACGCCUUGCAUAAAGCAAAAGUACUAAAAAAGG
Briefly: ITC. The following applies: 100 mM KCl, 10 mM MgCl2; 40 mM HEPES pH 7.2, 298 K; 200 µM SAM titrated into 15 µM RNA.

In test [8] the test system is bhmT U47Isocytidine (RNA, riboswitch, isocytidine at U47 (metY numbering; position 44 of strand)) GGGCAGUUGAACCAUAUUGUGCGCCCUGCAUUUGCUUAAGCACUAAAAAGGA
In words: ITC. The following applies: 100 mM KCl, 10 mM MgCl2; 40 mM HEPES pH 7.2, 298 K; 200 µM SAM titrated into 15 µM RNA.

For test [9], the system named is bhmT U9 4-thiouridine (RNA, riboswitch, 4-thiouridine at U9 (metY numbering; position 7 of strand)) GGGCAGUUGAACCAUAUUGUGCGCCCUGCAUUUGCUUAAGCACUAAAAAGGA
Briefly: ITC. As to conditions: 100 mM KCl, 10 mM MgCl2; 40 mM HEPES pH 7.2, 298 K; 200 µM SAM titrated into 15 µM RNA.

Test [10] has as its system bhmT U20 4-thiouridine (RNA, riboswitch, 4-thiouridine at U20 (metY numbering; position 18 of strand)) GGGCAGUUGAACCAUAUUGUGCGCCCUGCAUUUGCUUAAGCACUAAAAAGGA
Briefly: ITC. The following applies: 100 mM KCl, 10 mM MgCl2; 40 mM HEPES pH 7.2, 298 K; 200 µM SAM titrated into 15 µM RNA.

The subject of test [11] is metY 53 nt (RNA, riboswitch) AGGCGCAUUUGAACUGUAUUGUACGCCUUGCAUAAAGCAAAAGUACUAAAAAA
Briefly: ITC. As to conditions: 100 mM KCl, 10 mM MgCl2; 40 mM HEPES pH 7.2, 298 K; 200 µM SAM titrated into 15 µM RNA.

The subject of test [12] is bhmT 49 nt (SAM-49) (RNA, riboswitch) GGGCAGUUGAACCAUAUUGUGCGCCCUGCAUUUGCUUAAGCACUAAAAA
Briefly: ITC. The following applies: 100 mM KCl, 10 mM MgCl2; 40 mM HEPES pH 7.2, 298 K; 200 µM SAM titrated into 15 µM RNA.

The subject of test [13] is metY 53 nt, 5-bromocytosine (crystallized) (RNA, riboswitch, 5-bromocytidine at 4) AGGCGCAUUUGAACUGUAUUGUACGCCUUGCAUAAAGCAAAAGUACUAAAAAA
Briefly: X-ray crystallography (2.5 Å). As to conditions: co-crystal, space group P4_122.

[14] abbreviates: 200-250 µM SAH titrated into 15 µM RNA.

Take `Nc1ncnc2c1ncn2[C@@H]1O[C@H](CSCC[C@H](N)C(=O)O)[C@@H](O)[C@H]1O`: the binding result in [1] (setting [14]) and in test [2] (setting [14]) was “no” each time.
The term Kd denotes a measure of binding affinity in units of concentration. On to `C[S+](CC[C@H](N)C(=O)O)C[C@H]1O[C@@H](n2cnc3c(N)ncnc32)[C@H](O)[C@@H]1O` (stereo partly drawn), for which the equilibrium dissociation constant (Kd) in test [1] is 4.37 ± 0.21 µM; in test [2], 0.50 ± 0.08 µM; in test [3] it was 14.7 ± 1.8 µM; in [4], 0.90 ± 0.10 µM; in test [5], 16.8 ± 2.6 µM. For the same molecule, the binding entry in [6] was “weak”; in test [7], “no”; in [8], “no”; in [9], “no”; in test [10] it was “weak”; in [11], “no”. Moreover, the binding entry in [12] is given as “no”; in [13], “yes”.
